Source: EP3536368B1, “DRY POWDER INHALER COMPRISING A SEROTONIN RECEPTOR AGONIST AND A DIKETOPIPERAZINE FOR TREATING MIGRAINES” (MannKind Corporation, priority 2010, dated 2012)
Read-outs that look alike come from different tables or passages of the source.

Experiments:
[1] = in vivo; conditions: female, Sprague Dawley, rat, iv
[2] = tested on: migraine model in anesthetized dogs; assay: Pharmacodynamic study, capsaicin-induced carotid vasodilation migraine model; format: in vivo, Beagle Dogs; conditions: regardless of the route of administration
[3] = rat, in vivo

CNS(=O)(=O)Cc1ccc2[nH]cc(CCN(C)C)c2c1 [Sumatriptan, sumatriptan]
half-life [1]: 5.07 h
Blood pressure and heart rate [2]: unaltered
tolerability [3]: well tolerated
AUC ([3]; iv): 273,729 (min,ng/mL)mg
Cmax ([3]; iv): 26,719 ng/mL/mg
AUC ([3]; sc): 99,583 (min,ng/mL)mg
Cmax ([3]; sc): 2309 ng/mL/mg
